Reference: PubChem BioAssay AID844 (SRMLSC, 2007)
Active and inactive are the calls of the source. How the calls were made is not given here.

Tested on: MRP1 cells, doxorubicin viability shift, 10 uM compound
Experiment: viability protection against doxorubicin, MRP-1 line – cell-based, doxorubicin EC50 shift, dose response (AID 844)
Settings: for EC50: measured here: doxorubicin EC50 with compound

Row | Compound | fold increase in Dox EC50 | EC50 [µM]
1 | CCCCNc1oc(-c2ccc(OC)cc2)nc1S(=O)(=O)c1ccccc1 | 0.72 (inactive) | 3.87
2 | Cc1cc(N/N=C/c2ccccc2Cl)nc(NCc2ccccc2)n1 | 0.2 (inactive) | 1.08
3 | CC(C)Oc1ccc(CSC(=N)N)cc1 | 0.89 (inactive) | 4.81
4 | O=C1c2ccsc2SCCN1Cc1c(Cl)cccc1Cl | 1.19 (inactive) | 6.43
5 | CC(C)OC(=O)CSc1nnc2n1C(C)(C)Cc1ccccc1-2 | 0.82 (inactive) | 4.42
6 | Cc1nc2ccccc2c(=O)n1/N=C/c1c(O)ccc2oc3c(c12)CCCC3 | 0.28 (inactive) | 1.5
7 | Cc1cc(C(=O)N/N=C/c2cc([N+](=O)[O-])cc(C)c2O)n[nH]1 | 0.53 (inactive) | 2.87
8 | CCn1c(COc2ccc(Cl)cc2)nnc1SCc1nc2ccccc2[nH]1 | 0.35 (inactive) | 1.87
9 | COc1cccc(/C=N/N2C(=O)CSC2=S)c1O | 1.31 (inactive) | 7.08
10 | Nc1ccc(C(=O)OCC(=O)N2c3ccccc3Sc3ccccc32)cc1[N+](=O)[O-] | 1.29 (inactive) | 6.97
11 | Cc1csc(C(C#N)C(=O)c2cc3ccccc3o2)n1 (centres undefined) | 1.19 (inactive) | 6.41
12 | COc1ccc(NC(=O)Cn2cc(C(=O)c3ccco3)c3ccccc32)cc1 | 0.88 (inactive) | 4.74
13 | C=CCSC1=NC(=O)/C(=C/c2cccs2)S1 | 1.13 (inactive) | 6.1
14 | C/C(=N/NC(=S)Nc1ccccc1)c1ccc2c(c1)OCO2 | 1.01 (inactive) | 5.46
15 | COC(=O)C1C(=O)c2c([nH]c(C(=O)OC3CCCCC3)c2C)CC1C (centres undefined) | 0.69 (inactive) | 3.74
16 | CC(C)(C)c1ccc(-c2nc(-c3ccncc3)no2)cc1 | 0.77 (inactive) | 4.15
17 | CC(C)(C)NC(NC(=O)Cc1ccccc1)C(Cl)(Cl)Cl (centres undefined) | 1.07 (inactive) | 5.77
18 | CC(C)(C)C1CCc2c(sc(NC(=O)c3cccs3)c2C(=O)N2CCCCC2)C1 (centres undefined) | 0.96 (inactive) | 5.2
19 | O=C(CC(c1ccccc1)c1ccccc1)Nc1ncn[nH]1 | 0.75 (inactive) | 4.03
20 | COc1ccccc1C1C(C(=O)c2sc(C)nc2C)=C(O)C(=O)N1CCN1CCOCC1 (centres undefined) | 0.71 (inactive) | 3.81
21 | CNC(=S)Nc1ccc(C23CC4CC(CC(C4)C2)C3)cc1 | 0.7 (inactive) | 3.78
22 | O=C(NCc1ccc(Cl)cc1)C(=O)NCC1OCCN1C(=O)c1cccs1 (centres undefined) | 1.33 (inactive) | 7.17
23 | Cc1cccc(C2CC(c3ccccc3)Nc3ncnn32)c1 (centres undefined) | 0.46 (inactive) | 2.46
24 | O=C1/C(=C\c2ccco2)SC(=S)N1c1ccc(O)cc1 | 0.34 (inactive) | 1.84
25 | CCc1nnc(NC(=O)C2COc3ccccc3O2)s1 (centres undefined) | 1.1 (inactive) | 5.95
26 | OCCN=C1CCCc2c1[nH]c1ccc(Br)cc21 | 0.84 (inactive) | 4.56

Row | Compound | fold increase in Dox EC50 | EC50 [µM]
27 | Cc1ccc(N/N=C(\C#N)C(N)=S)c(C)c1 | 0.6 (inactive) | 3.25
28 | COC(=O)C1=C(C)NC(C)=C(C(=O)OC)C1c1ccccc1OCc1c(C)no[n+]1[O-] | 0.98 (inactive) | 5.32
29 | CCc1noc(C)c1C(=O)Nc1nc(-c2cc(C)ccc2C)c(C)s1 | 0.83 (inactive) | 4.48
30 | CCOc1ccc(-c2nc(C#N)c(N3CCCCCC3)o2)cc1 | 0.56 (inactive) | 3.04
31 | O=C1[C@@H]2C(Cc3ccc(O)cc3)NC3(C(=O)Nc4ccc(F)cc43)[C@@H]2C(=O)N1c1ccc(F)cc1 (some centres undefined) | 1.39 (inactive) | 7.52
32 | CCN=c1scc(C)n1/N=C/c1ccc(O)c(O)c1O | 0.18 (inactive) | 0.985
33 | Cc1cc(C(=O)COC(=O)c2ccc3c(c2)OCO3)c(C)n1Cc1cccs1 | 1.06 (inactive) | 5.7
34 | Cc1ccc2c(C)nc(/N=C(\N)NC(=O)N3c4ccccc4Sc4ccccc43)nc2c1 | 1.38 (inactive) | 7.48
35 | COc1ccc(C2=NN(C(=O)c3cccs3)C(c3ccc(OC)cc3)C2)cc1 (centres undefined) | 1.06 (inactive) | 5.7
36 | CCC(Sc1nc(-c2ccccc2)c(C#N)c(=O)[nH]1)C(=O)Nc1nnc(C)s1 (centres undefined) | 1.82 | 9.85
37 | CCc1nnc(NC(=O)CCC(=O)N2CCN(Cc3ccc(Cl)cc3)CC2)s1 | 0.76 (inactive) | 4.09
38 | c1ccc(-c2ccc(-c3nc(-c4ccncc4)no3)cc2)cc1 | 0.41 (inactive) | 2.21
39 | O=C(CCc1ccccc1)N/N=C/c1cc(Br)ccc1O | 0.12 (inactive) | 0.631
40 | COc1ccc(OC)c(-c2cc(C(=O)Nc3c(C)nn(Cc4ccccc4C)c3C)no2)c1 | 0.65 (inactive) | 3.49
41 | Cc1ccc(C)c2[nH]c(=O)c(CN(Cc3ccco3)S(=O)(=O)c3ccc4c(c3)OCCO4)cc12 | 0.88 (inactive) | 4.73
42 | CCOc1ccc(NC(=O)N2CCC(n3c(=O)[nH]c4ccccc43)CC2)cc1 | 0.9 (inactive) | 4.85
43 | CCOC(=O)C1=C(C)Nc2sc(C(=O)c3ccc(C)cc3)c(N)c2C1c1ccc(C(=O)OC)cc1 (centres undefined) | 0.36 (inactive) | 1.96
44 | N=C(N)SCc1cccc2ccccc12 | 0.35 (inactive) | 1.9
45 | CCOC(=O)c1csc(NC(=O)c2ccccc2)n1 | 0.86 (inactive) | 4.65
46 | COc1ccc(OCc2nnc(SCC(=O)N3c4ccccc4Sc4ccc(Cl)cc43)o2)cc1 | 1.1 (inactive) | 5.92
47 | CCOc1ccc(Cn2nnc(C(=O)NCCc3ccccc3)c2N)cc1 | 1.05 (inactive) | 5.65
48 | CNC(=S)Nc1ccc(C)cc1 | 0.67 (inactive) | 3.64
49 | Cc1cc(NC(=O)CSc2nc(-c3ccccc3)c(C#N)c(=O)[nH]2)no1 | 1.51 | 8.14
50 | c1ccc(N2CCN(c3nc(-c4cccs4)nc4ccccc34)CC2)cc1 | 0.81 (inactive) | 4.37
51 | Cc1nn(Cc2ccccc2)c(C)c1NC(=O)c1noc2c1CCc1ccccc1-2 | 0.95 (inactive) | 5.11
52 | O=C1CC(c2nc3ccccc3[nH]2)CN1c1cccc(C(F)(F)F)c1 (centres undefined) | 1.24 (inactive) | 6.7

Row | Compound | fold increase in Dox EC50 | EC50 [µM]
53 | CCSC(C)CC1C/C(=N/O)c2c(CC)noc2C1 (centres undefined) | 1.27 (inactive) | 6.85
54 | CCOC(=O)CSc1nc(N)nc(C)c1Br | 0.78 (inactive) | 4.2
55 | Cc1cc(NC(=O)c2cc(C(C)C)on2)nn1Cc1ccc(Cl)cc1 | 1.35 (inactive) | 7.27
56 | Cc1ccc(N2C(=O)NC(=O)/C(=C\c3ccsc3)C2=O)cc1C | 0.8 (inactive) | 4.33
57 | CCCCc1ccc(NC(=O)c2c(C)noc2C)cc1 | 1.23 (inactive) | 6.63
58 | O=C(CCCCl)NC1=NN(c2ccccc2)C(=O)C1 | 1.56 | 8.43
59 | O=C(Nc1nnc(N2CCCCCC2)s1)c1cc(-c2ccc(Br)cc2)on1 | 0.91 (inactive) | 4.91
60 | Cc1c(C)n(C)c2ccc(C(=O)NCc3cccs3)cc12 | 1.06 (inactive) | 5.75
61 | CCC(C)c1ccc(O)c(NC(=O)c2ncn[nH]2)c1 (centres undefined) | 0.97 (inactive) | 5.25
62 | Cc1ccc(Cl)cc1N1CCN(C(=O)Cc2ccc(-n3c(=O)[nH]c4ccsc4c3=O)cc2)CC1 | 0.78 (inactive) | 4.24
63 | O=C1Nc2ccccc2CCC1Sc1nnc(-c2ccc(Cl)cc2)s1 (centres undefined) | 1.32 (inactive) | 7.13
64 | CCCCOc1ccc(C(=O)Oc2ccc(C)nc2)cc1 | 0.9 (inactive) | 4.88
65 | NC1=NC(=O)/C(=C/c2cn(CCC(=O)O)nc2-c2ccc(Cl)cc2)S1 | 0.93 (inactive) | 5.01
66 | COc1ccc(C(C)=O)cc1CSc1nnc(Nc2ccccc2C)s1 | 0.75 (inactive) | 4.04
67 | O=C(c1ccc(COc2ccc(Br)cc2)o1)N1N=C(C(F)F)CC1(O)C(F)F (centres undefined) | 1.06 (inactive) | 5.71
68 | C=C(C)C(=O)NC1=NN(c2ccccc2)C(=O)C1 | 1.04 (inactive) | 5.63
69 | O=c1nc2s/c(=C\c3ccc(-c4ccccc4[N+](=O)[O-])o3)c(=O)n2nc1-c1ccccc1 | 1.43 (inactive) | 7.73
70 | Cc1ccc(C(C)C)c(OCc2nc(-c3nonc3N)no2)c1 | 1.51 | 8.18
71 | COc1ccc(Cn2c(O)c(C=Nc3ccc(OC)cc3)c3ccccc3c2=O)cc1 | 1.34 (inactive) | 7.24
72 | CCCC(=O)c1ccc(N2CCOCC2)c(F)c1 | 1.07 (inactive) | 5.75
73 | Cc1ccc(S(=O)(=O)Nc2ccc3ncccc3c2)cc1 | 1.36 (inactive) | 7.32
74 | Cc1nc(/N=C(\N)NC(=O)N2c3ccccc3Sc3ccccc32)nc2ccccc12 | 0.95 (inactive) | 5.12
75 | CCOc1ccccc1NC(=O)c1cccc(NC(=O)CC(c2ccccc2)c2ccccc2)c1 | 1.2 (inactive) | 6.45
76 | Cc1ccc(NC(=O)CCNC(=O)c2ccc(Cl)cc2)cc1F | 1.15 (inactive) | 6.19
77 | CCOC(=O)c1ccc(NC(=O)C2CCN(C(=O)c3ccc(OC)c(OC)c3)CC2)cc1 | 0.99 (inactive) | 5.35
